# Assay results as given in patent US10881110B2, “Herbicidal compositions comprising isoxazolo[5,4-b]pyridines” (BASF SE, priority 2014, dated 2021).
# Where two headings read alike, the source gives them in different places.
# What was measured:
# Assay in all cases: greenhouse post-emergence herbicidal test
# GERDI = format: in vivo, Geranium dissectum; parameters: key to herbicidal activity against GERDI found: rating on a scale from 0 to 100; conditions: post emergence
# Method in brief: (§1)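 Herbicidal activity scored on a 0 (no damage) to 100 (plants destroyed) scale, usually 20 days after water-based spraying of 1–15 cm plants grown in loamy sand at 10-25 °C or 20-35 °C depending on species. Components were applied from 10% emulsion concentrates; Colby's E=X+Y−(X·Y/100) gives the additive expectation.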
# LAMAM = format: in vivo, Lamium amplexicaule; parameters: key: scale 0 to 100
# Protocol: The culture containers used were plastic pots containing medium loamy sand with approximately 4.6% of humus and 69.9% sand as substrate. The seeds of the test plants were sown separately for each species.
# For the post-emergence treatment, the test plants were grown to a plant height of from 1 to 15 cm, depending on the plant habit, and only then treated with the active compounds which had been suspended or emulsified in water. To this end, the test plants were either sown directly, and grown in the same containers, or they were first grown separately as seedlings and transplanted into the test containers a few days prior to treatment.
# Depending on the species, the plants were kept at 10-25° C. and 20-35° C., respectively.
# The test period extended over 1 to 3 weeks. During this time, the plants were tended and their response to the individual treatments was evaluated 20 days after treatment except mentioned otherwise.
# Evaluation was carried out using a scale from 0 to 100. 100 means no emergence of the plants, or complete destruction of at least the above-ground parts, and 0 means no damage or normal course of growth.
# The respective stated components A and B, and, if appropriate, C, were formulated as a 10% by weight strength emulsion concentrate and, with addition of the amount of solvent system, introduced into the spray liquor used for applying the active compound. In the examples, the solvent used was water.
# In the examples below, using the method of S. R. Colby (1967) “Calculating synergistic and antagonistic responses of herbicide combinations”, Weeds 15, p. 22 ff., the value E, which is expected if the activity of the individual active compounds is only additive, was calculated. E=X+Y−(X·Y/100)
# IPOHE = format: in vivo, Ipomoea hederacea; parameters: key to herbicidal activity against IPOHE found: rating on a scale from 0 to 100; conditions: post emergence; for pest or weed control at 31.25 g/ha: 31.25 g/ha a.i.
# Method in brief: as §1
# [1] = I.1 15.6 g/ha, B.103 7.5 g/ha a.i.
# [2] = I.1 15.62 g/ha, B.89 25 g/ha a.i.
# [3] = I.1 31.25 g/ha, B.103 15 g/ha a.i.
# [4] = I.1 62.5 g/ha, B.89 12.5 g/ha a.i.
# [5] = I.1 62.5 g/ha, B.89 25 g/ha a.i.
# [6] = a.i. g/ha: I.1 31.25, B.190 62.5, 20 days after treatment
# [7] = application rate a.i.: I.1 62.5 g/ha, B.40 (imazethapyr) 7.5 g/ha, alone or as mixture (composition 1.40)
# [8] = application rate a.i.: I.1 62.5 g/ha, B.87 (carfentrazone-ethyl) 1.75 g/ha, alone or as mixture (composition 1.87)
smiles,measurement,setting,value
O=C(O)c1cc(C2CC2)nc2onc(C3CC3)c12 [I.1],pest or weed control at 62.5 g/ha,"GERDI; Geranium dissectum, post-emergence, 480 h, single active, 62.5 g/ha a.i., read-out: herbicidal activity against GERDI found",60%
same,pest or weed control at 125 g/ha,"GERDI; Geranium dissectum, post-emergence, 480 h, single active, 125 g/ha a.i., read-out: herbicidal activity against GERDI found",70%
same,herbicidal activity against GERDI found,GERDI; [1],0
same,herbicidal activity against GERDI found,GERDI; [2],0
same,herbicidal activity against GERDI found,"GERDI; I.1 31.25 g/ha, B.103 7.5 g/ha a.i.",30
same,herbicidal activity against GERDI found,GERDI; [3],30
same,herbicidal activity against GERDI found,"GERDI; I.1 62.5 g/ha, B.103 7.5 g/ha a.i.",60
same,herbicidal activity against GERDI found,"GERDI; I.1 62.5 g/ha, B.103 15 g/ha a.i.",60
same,herbicidal activity against GERDI found,"GERDI; I.1 62.5 g/ha, B.167 125 g/ha a.i.",60
same,herbicidal activity against GERDI found,"GERDI; I.1 62.5 g/ha, B.88 1 g/ha a.i.",0
same,herbicidal activity against GERDI found,"GERDI; I.1 62.5 g/ha, B.88 2 g/ha a.i.",0
same,herbicidal activity against GERDI found,GERDI; [4],0
same,herbicidal activity against GERDI found,GERDI; [5],0
same,herbicidal activity against GERDI found,"GERDI; I.1 62.5 g/ha, B.95 1 g/ha a.i.",0
same,herbicidal activity against GERDI found,"GERDI; I.1 62.5 g/ha, B.95 2 g/ha a.i.",0
same,herbicidal activity against GERDI found,"GERDI; a.i. g/ha: I.1 7.8, B.67 125, 20 days after treatment",0%
same,herbicidal activity against GERDI found,"GERDI; a.i. g/ha: I.1 15.6, B.67 125, 20 days after treatment",0%
same,herbicidal activity against GERDI found,GERDI; [6],30%
same,herbicidal activity against GERDI found,"GERDI; a.i. g/ha: I.1 31.25, B.67 125, 20 days after treatment",30%
same,herbicidal activity against GERDI found,"GERDI; a.i. g/ha: I.1 31.25, B.67 125, 20 days after treatment, sub-table r36-r43",30%
same,herbicidal activity against GERDI found,"GERDI; a.i. g/ha: I.1 62.5, B.67 125, 20 days after treatment",40%
same,herbicidal activity against GERDI found,"GERDI; application rate a.i.: I.1 31.25 g/ha, B.100 (isoxaflutole) 12.5 g/ha, alone or as mixture (composition 1.100)",60
same,herbicidal activity against GERDI found,"GERDI; application rate a.i.: I.1 31.25 g/ha, B.40 (imazethapyr) 7.5 g/ha, alone or as mixture (composition 1.40)",30
same,herbicidal activity against GERDI found,"GERDI; application rate a.i.: I.1 62.5 g/ha, B.100 (isoxaflutole) 12.5 g/ha, alone or as mixture (composition 1.100)",65
same,herbicidal activity against GERDI found,"GERDI; application rate a.i.: I.1 62.5 g/ha, B.30 (imazamox) 3.75 g/ha, alone or as mixture (composition 1.030)",85
same,herbicidal activity against GERDI found,GERDI; [7],70
same,herbicidal activity against GERDI found,GERDI; [8],85
same,herbicidal activity against GERDI found,"GERDI; application rate a.i.: I.1 125 g/ha, B.113 (glyphosate) 135 g/ha, alone or as mixture (composition 1.113)",80
same,herbicidal activity against GERDI found,"GERDI; application rate a.i.: I.1 250 g/ha, B.193 15 g/ha, alone or as mixture (composition 1.193)",95
same,herbicidal activity against GERDI found,GERDI; applied alone at 31.25 g/ha a.i.,65
same,herbicidal activity against GERDI found,"GERDI; g/ha a.i.: I.1 31.25, B.52 2.5, mixture 31.25+2.5",50
same,herbicidal activity against GERDI found,"GERDI; g/ha a.i.: I.1 62.5, B.52 2.5, mixture 62.5+2.5",65
same,herbicidal activity against GERDI found,"GERDI; g/ha a.i.: I.1 125, B.52 2.5, mixture 125+2.5",65
same,"herbicidal activity against LAMAM, found",LAMAM; 31.25 g/ha a.i.,70
same,"herbicidal activity against LAMAM, found","LAMAM; application rate a.i.: I.1 31.25 g/ha, B.139 (pyroxasulfone) 25 g/ha, alone or as mixture (composition 1.139)",80
same,"herbicidal activity against LALAM, found","LAMAM; application rate a.i.: I.1 31.25 g/ha, B.87 (carfentrazone-ethyl) 1.75 g/ha, alone or as mixture (composition 1.87)",70
same,"herbicidal activity against LAMAM, found",LAMAM; [8],85
same,pest or weed control at 31.25 g/ha,"IPOHE; Ipomoea hederacea, post-emergence, 480 h, read-out: herbicidal activity against IPOHE found",75%
same,pest or weed control at 62.5 g/ha,"IPOHE; Ipomoea hederacea, post-emergence, 480 h, 62.5 g/ha a.i., read-out: herbicidal activity against IPOHE found",90%
same,pest or weed control at 31.25 g/ha,"IPOHE; Ipomoea hederacea, post-emergence, 480 h, single active, read-out: herbicidal activity against IPOHE found",55%
same,pest or weed control at 125 g/ha,"IPOHE; Ipomoea hederacea, post-emergence, 480 h, single active, 125 g/ha a.i., read-out: herbicidal activity against IPOHE found",95%
same,herbicidal activity against IPOHE found,"IPOHE; 6 days after treatment, g/ha a.i.: I.1 31.25, B.96 35, mixture 31.25+35",70
same,herbicidal activity against IPOHE found,"IPOHE; 6 days after treatment, g/ha a.i.: I.1 31.25, B.96 70, mixture 31.25+70",70
same,herbicidal activity against IPOHE found,"IPOHE; 6 days after treatment, g/ha a.i.: I.1 31.25, B.96 140, mixture 31.25+140",70
same,herbicidal activity against IPOHE found,"IPOHE; 6 days after treatment, g/ha a.i.: I.1 62.5, B.96 140, mixture 62.5+140",80
same,herbicidal activity against IPOHE found,IPOHE; [1],20
same,herbicidal activity against IPOHE found,IPOHE; [2],25
same,herbicidal activity against IPOHE found,IPOHE; [3],70
same,herbicidal activity against IPOHE found,"IPOHE; I.1 31.25 g/ha, B.89 25 g/ha a.i.",25
same,herbicidal activity against IPOHE found,"IPOHE; I.1 62.5 g/ha, B.57 1 g/ha a.i.",30
same,herbicidal activity against IPOHE found,IPOHE; [4],30
same,herbicidal activity against IPOHE found,IPOHE; [5],30
same,herbicidal activity against IPOHE found,"IPOHE; a.i. g/ha: I.1 15.6, B.190 62.5, 20 days after treatment",50%
same,herbicidal activity against IPOHE found,IPOHE; [6],65%
same,herbicidal activity against IPOHE found,IPOHE; [7],95
same,herbicidal activity against IPOHE found,"IPOHE; g/ha a.i.: I.1 31.25, B.20 2, mixture 31.25+2",25
same,herbicidal activity against IPOHE found,"IPOHE; g/ha a.i.: I.1 31.25, B.24 1, mixture 31.25+1",25
